Values after ≈ are worked out from the molar mass of the structure shown. Active and inactive are the calls of the source. The rule behind the calls is not given here.
How the values were obtained:
[1] = Drug exposure in mouse plasma assessed as AUC of drug at 3 mg/kg, po; assay type: ADME, organism-based; set-up: dose 3 mg/kg, route po
[2] = target: T1, ADP-ribosyl cyclase/cyclic ADP-ribose hydrolase 1 (Homo sapiens, UniProt P28907)
T1 sequence (P28907 whole entry): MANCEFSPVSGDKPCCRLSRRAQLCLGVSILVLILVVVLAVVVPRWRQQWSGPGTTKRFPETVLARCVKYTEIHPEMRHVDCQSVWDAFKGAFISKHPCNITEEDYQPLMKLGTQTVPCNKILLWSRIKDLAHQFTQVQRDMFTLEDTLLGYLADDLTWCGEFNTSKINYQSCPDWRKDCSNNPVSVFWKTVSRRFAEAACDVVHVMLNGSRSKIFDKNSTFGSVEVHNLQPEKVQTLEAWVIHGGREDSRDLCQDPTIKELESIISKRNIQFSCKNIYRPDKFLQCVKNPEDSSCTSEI
Description: Inhibition of human his tagged CD38 using N6-etheno-NAD as substrate by fluorescence microplate reader assay

[3] = Plasma protein binding in human; assay type: ADME, cell-free; conditions: read-out: PPB (converted)
[4] = AUC in non-human primates at 1 mg/kg, iv; assay type: ADME, organism-based; set-up: dose 1 mg/kg, route iv; conditions: in vivo
[5] = Thermodynamic aqueous solubility of the compound; assay type: physicochemical; conditions: buffer; read-out: Therm_solubility
[6] = Volume of distribution at steady state in non-human primates at 1 mg/kg, iv; assay type: ADME, organism-based; conditions: in vivo, read-out: Vdss
[7] = AUC in Sprague-Dawley rat at 10 mg/kg, po; assay type: ADME, organism-based; set-up: dose 10 mg/kg, route po; conditions: in vivo
Mus musculus [8] = species: Mus musculus; conditions: C57BL/6, dose 30.0 mg/kg, route po, time 4.0 hrs
[9] = Cmax in CD-1 mouse at 3 mg/kg, po; assay type: ADME, organism-based; set-up: dose 3 mg/kg, route po; conditions: in vivo
[10] = Half life in Sprague-Dawley rat at 10 mg/kg, po; assay type: ADME, organism-based; conditions: in vivo
Mus musculus [11] = species: Mus musculus; conditions: C57BL/6, dose 30.0 mg/kg, route po
Description: In vivo inhibition of CD38 in myocardial ischemia/reperfusion induced C57BL/6 mouse injury model assessed as change in cardiac NAD+ level at 30 mg/kg via oral gavage

Mus musculus [12] = species: Mus musculus; conditions: dose 3-30 mg/kg, route po, time 6.0 hrs
Mus musculus [13] = species: Mus musculus; conditions: dose 3-30 mg/kg, route po, time 6.0 hrs; remark: listed apart in the source
[14] = Half life in non-human primates at 1 mg/kg, iv; assay type: ADME, organism-based; conditions: in vivo
[15] = AUC in Sprague-Dawley rat at 1 mg/kg, iv; assay type: ADME, organism-based; set-up: dose 1 mg/kg, route iv; conditions: in vivo
[16] = AUC in non-human primates at 1 mg/kg, po; assay type: ADME, organism-based; set-up: dose 1 mg/kg, route po; conditions: in vivo
[17] = Apparent permeability of compound across basolateral to apical side in human Caco-2 cells; assay type: ADME, cell-based
CYP2C19 = CYP2C19 (Homo sapiens, UniProt P33261); assay: Inhibition of CYP2C19 (unknown origin) at 10 uM relative to control; assay type: ADME
Sequence of CYP2C19 (P33261 whole entry): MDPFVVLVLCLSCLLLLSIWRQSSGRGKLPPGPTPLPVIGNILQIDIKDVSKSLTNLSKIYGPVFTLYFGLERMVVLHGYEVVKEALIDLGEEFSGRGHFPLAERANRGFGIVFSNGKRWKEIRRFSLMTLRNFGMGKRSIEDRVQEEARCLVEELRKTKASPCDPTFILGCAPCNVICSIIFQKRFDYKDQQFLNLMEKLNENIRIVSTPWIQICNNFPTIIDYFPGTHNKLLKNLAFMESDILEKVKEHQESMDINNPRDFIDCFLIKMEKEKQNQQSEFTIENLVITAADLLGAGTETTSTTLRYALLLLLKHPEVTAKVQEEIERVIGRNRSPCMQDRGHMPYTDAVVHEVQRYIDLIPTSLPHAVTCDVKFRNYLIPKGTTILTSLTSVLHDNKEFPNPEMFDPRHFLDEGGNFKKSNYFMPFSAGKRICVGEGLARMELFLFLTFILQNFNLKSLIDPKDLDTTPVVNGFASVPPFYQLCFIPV

Mus musculus [18] = species: Mus musculus; conditions: dose 3-30 mg/kg, route po, time 6.0 hrs; remark: listed apart in the source
[19] = Cmax in non-human primates at 1 mg/kg, po; assay type: ADME, organism-based; set-up: dose 1 mg/kg, route po; conditions: in vivo
CYP1A2 = target: T2, CYP1A2 (Homo sapiens, UniProt P05177); assay: Inhibition of CYP1A2 (unknown origin) at 10 uM relative to control; assay type: ADME
T2 sequence (P05177 whole entry): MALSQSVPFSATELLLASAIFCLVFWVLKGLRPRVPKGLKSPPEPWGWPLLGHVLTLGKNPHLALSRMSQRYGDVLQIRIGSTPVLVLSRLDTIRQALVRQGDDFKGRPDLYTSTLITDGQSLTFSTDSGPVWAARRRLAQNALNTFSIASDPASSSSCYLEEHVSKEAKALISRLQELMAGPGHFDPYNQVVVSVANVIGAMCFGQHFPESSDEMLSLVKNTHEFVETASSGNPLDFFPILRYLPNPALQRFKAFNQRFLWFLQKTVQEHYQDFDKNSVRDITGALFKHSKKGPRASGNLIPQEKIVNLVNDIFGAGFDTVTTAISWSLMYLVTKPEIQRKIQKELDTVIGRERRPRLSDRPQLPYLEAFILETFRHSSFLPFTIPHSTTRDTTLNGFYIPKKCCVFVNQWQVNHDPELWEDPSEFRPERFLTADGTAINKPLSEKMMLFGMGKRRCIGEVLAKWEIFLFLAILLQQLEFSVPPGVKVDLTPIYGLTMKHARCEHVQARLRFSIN

[20] = Half life in non-human primates at 1 mg/kg, po; assay type: ADME, organism-based; conditions: in vivo
[21] = Kinetic aqueous solubility of the compound; assay type: physicochemical; conditions: buffer; read-out: Kinetic_solubility
[22] = Volume of distribution at steady state in CD-1 mouse at 1 mg/kg, iv; assay type: ADME, organism-based; conditions: in vivo
[23] = In vivo inhibition of CD38 in po dosed mouse assessed as reduction in ADPR level in heart measured after 6 hrs; assay type: functional, organism-based
[24] = Apparent permeability of compound across apical to basal membrane in human Caco-2 cells; assay type: ADME, cell-based
[25] = In vivo inhibition of CD38 in po dosed mouse assessed as reduction in ADPR level in blood mg/kg measured after 6 hrs; assay type: functional, organism-based
hERG = hERG (Homo sapiens, UniProt Q12809); assay: Inhibition of hERG (unknown origin) at 10 uM by patch clamp method; assay type: toxicity
Sequence of hERG (Q12809 whole entry): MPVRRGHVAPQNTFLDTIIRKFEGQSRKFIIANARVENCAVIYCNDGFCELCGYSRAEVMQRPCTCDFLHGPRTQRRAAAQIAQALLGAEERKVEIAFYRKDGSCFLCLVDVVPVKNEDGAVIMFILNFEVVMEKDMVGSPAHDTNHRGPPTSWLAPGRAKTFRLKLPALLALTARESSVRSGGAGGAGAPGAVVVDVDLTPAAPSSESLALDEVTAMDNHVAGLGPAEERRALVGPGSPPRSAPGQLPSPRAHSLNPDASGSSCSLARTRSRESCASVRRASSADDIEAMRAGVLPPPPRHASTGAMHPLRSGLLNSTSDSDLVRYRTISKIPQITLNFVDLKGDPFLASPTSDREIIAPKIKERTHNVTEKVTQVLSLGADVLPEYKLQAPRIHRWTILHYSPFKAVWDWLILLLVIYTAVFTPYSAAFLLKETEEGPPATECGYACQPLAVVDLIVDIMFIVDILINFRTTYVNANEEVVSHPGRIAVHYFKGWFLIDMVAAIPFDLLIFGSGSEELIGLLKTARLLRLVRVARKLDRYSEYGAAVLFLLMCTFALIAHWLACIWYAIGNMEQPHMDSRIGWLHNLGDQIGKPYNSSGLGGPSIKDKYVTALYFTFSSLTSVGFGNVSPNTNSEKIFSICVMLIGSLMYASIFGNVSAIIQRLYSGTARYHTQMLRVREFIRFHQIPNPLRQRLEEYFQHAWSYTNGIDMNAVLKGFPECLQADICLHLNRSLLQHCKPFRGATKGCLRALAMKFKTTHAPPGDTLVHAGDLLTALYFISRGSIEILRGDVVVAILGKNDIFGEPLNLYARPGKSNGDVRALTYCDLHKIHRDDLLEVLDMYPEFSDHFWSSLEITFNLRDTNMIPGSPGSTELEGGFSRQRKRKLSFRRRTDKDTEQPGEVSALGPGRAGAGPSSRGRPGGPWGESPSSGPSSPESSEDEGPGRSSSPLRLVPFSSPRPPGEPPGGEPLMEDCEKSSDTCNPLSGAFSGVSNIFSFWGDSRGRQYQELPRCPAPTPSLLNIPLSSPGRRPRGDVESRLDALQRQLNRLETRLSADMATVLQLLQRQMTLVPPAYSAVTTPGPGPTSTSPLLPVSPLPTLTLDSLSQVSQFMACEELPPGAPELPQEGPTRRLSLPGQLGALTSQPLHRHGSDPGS

[26] = Plasma protein binding in mouse; assay type: ADME, cell-free; conditions: read-out: PPB (converted)
Mus musculus [27] = species: Mus musculus; conditions: dose 3-30 mg/kg, route po, time 6.0 hrs; remark: listed apart in the source
[28] = Volume of distribution at steady state in Sprague-Dawley rat at 1 mg/kg, iv; assay type: ADME, organism-based; conditions: in vivo
[29] = Half life in Sprague-Dawley rat at 1 mg/kg, iv; assay type: ADME, organism-based; conditions: in vivo
[30] = Half life in CD-1 mouse at 1 mg/kg, iv; assay type: ADME, organism-based; conditions: in vivo
Mus musculus [31] = species: Mus musculus; conditions: C57BL/6, dose 30.0 mg/kg, route po, time 4.0 hrs; remark: listed apart in the source
CYP2C9 = CYP2C9 (Homo sapiens, UniProt P11712); assay: Inhibition of CYP2C9 (unknown origin) at 10 uM relative to control; assay type: ADME
Sequence of CYP2C9 (P11712 whole entry): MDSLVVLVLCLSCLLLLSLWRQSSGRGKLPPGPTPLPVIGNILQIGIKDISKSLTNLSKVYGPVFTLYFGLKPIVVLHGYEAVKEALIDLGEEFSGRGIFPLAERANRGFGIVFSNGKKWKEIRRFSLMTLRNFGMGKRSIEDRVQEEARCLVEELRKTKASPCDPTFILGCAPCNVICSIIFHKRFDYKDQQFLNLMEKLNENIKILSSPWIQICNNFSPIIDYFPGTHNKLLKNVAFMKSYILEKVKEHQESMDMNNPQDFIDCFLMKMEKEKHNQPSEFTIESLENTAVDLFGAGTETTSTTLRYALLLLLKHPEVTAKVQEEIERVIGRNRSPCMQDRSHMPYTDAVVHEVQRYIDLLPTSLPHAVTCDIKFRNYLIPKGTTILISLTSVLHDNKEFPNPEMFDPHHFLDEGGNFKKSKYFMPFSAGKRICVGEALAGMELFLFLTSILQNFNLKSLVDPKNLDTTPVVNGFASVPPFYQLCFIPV

[32] = Plasma protein binding in rat; assay type: ADME, cell-free; conditions: read-out: PPB (converted)
[33] = Plasma concentration in CD1 mouse at 10 to 90 mg/kg, via oral gavage by LC-MS/MS analysis; assay type: ADME, organism-based; conditions: in vivo, DDE = dose-dependent effect, dose 10-90 mg/kg
[34] = target: T3, ADP-ribosyl cyclase/cyclic ADP-ribose hydrolase 1 (Rattus norvegicus, UniProt Q64244); assay: Inhibition of rat CD38 using N6-etheno-NAD as substrate by fluorescence microplate reader assay
T3 sequence (Q64244 whole entry): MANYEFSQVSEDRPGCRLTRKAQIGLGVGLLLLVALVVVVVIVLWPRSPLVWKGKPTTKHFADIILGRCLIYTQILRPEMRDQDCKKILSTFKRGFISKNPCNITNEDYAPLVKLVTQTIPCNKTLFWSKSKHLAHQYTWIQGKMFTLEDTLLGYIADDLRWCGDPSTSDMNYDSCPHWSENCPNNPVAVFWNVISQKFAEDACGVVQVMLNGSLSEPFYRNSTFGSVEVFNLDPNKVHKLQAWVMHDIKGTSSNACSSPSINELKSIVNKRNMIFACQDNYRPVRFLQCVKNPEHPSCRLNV

[35] = AUC in CD-1 mouse at 1 mg/kg, iv; assay type: ADME, organism-based; set-up: dose 1 mg/kg, route iv; conditions: in vivo
[36] = Cmax in Sprague-Dawley rat at 10 mg/kg, po; assay type: ADME, organism-based; set-up: dose 10 mg/kg, route po; conditions: in vivo
[37] = Plasma concentration in Sprague-Dawley rat at 10 to 90 mg/kg, via oral gavage by LC-MS/MS analysis; assay type: ADME, organism-based; conditions: in vivo, DDE = dose-dependent effect, dose 10-90 mg/kg
[38] = Oral bioavailability in non-human primates at 1 mg/kg; assay type: ADME, organism-based; conditions: in vivo
Mus musculus [39] = species: Mus musculus; conditions: C57BL/6, dose 30.0 mg/kg, route po, time 4.0 hrs; remark: listed apart in the source
CYP2C8 = target: T4, CYP2C8 (Homo sapiens, UniProt P10632); assay: Inhibition of CYP2C8 (unknown origin) at 10 uM relative to control; assay type: ADME
T4 sequence (P10632 whole entry): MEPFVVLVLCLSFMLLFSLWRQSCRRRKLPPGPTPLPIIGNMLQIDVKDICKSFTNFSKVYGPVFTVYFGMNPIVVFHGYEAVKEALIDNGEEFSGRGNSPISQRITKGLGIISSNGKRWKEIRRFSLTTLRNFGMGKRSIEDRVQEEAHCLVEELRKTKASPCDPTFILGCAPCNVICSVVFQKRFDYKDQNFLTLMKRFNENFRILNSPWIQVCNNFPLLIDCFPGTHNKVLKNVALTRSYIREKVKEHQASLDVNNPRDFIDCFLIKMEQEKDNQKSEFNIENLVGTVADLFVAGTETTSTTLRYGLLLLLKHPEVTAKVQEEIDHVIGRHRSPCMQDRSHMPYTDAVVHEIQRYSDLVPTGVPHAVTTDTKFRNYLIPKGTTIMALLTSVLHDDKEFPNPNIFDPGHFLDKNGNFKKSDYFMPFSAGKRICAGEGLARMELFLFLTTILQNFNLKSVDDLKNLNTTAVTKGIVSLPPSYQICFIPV

[40] = AUC in CD-1 mouse at 3 mg/kg, po; assay type: ADME, organism-based; set-up: dose 3 mg/kg, route po; conditions: in vivo
CYP2D6 = CYP2D6 (Homo sapiens, UniProt P10635); assay: Inhibition of CYP2D6 (unknown origin) at 10 uM relative to control; assay type: ADME
Sequence of CYP2D6 (P10635 whole entry): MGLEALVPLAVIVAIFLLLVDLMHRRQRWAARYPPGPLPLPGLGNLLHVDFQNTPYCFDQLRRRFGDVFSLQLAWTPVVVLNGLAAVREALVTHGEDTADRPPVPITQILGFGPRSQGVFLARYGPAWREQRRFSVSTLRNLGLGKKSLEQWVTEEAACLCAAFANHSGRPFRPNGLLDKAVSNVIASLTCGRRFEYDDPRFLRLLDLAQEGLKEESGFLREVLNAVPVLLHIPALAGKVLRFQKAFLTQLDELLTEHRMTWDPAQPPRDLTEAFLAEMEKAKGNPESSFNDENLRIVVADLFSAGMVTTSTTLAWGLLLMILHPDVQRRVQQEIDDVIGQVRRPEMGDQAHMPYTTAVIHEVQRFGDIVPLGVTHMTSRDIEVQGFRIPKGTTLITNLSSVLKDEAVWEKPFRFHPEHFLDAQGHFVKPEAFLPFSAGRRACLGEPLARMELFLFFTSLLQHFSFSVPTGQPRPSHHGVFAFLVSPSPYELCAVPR

[41] = Half life in CD-1 mouse at 3 mg/kg, po; assay type: ADME, organism-based; conditions: in vivo
[42] = target: T5, ADP-ribosyl cyclase/cyclic ADP-ribose hydrolase 1 (Mus musculus, UniProt P56528); assay: Inhibition of mouse his tagged CD38 using N6-etheno-NAD as substrate by fluorescence microplate reader assay
T5 sequence (P56528 whole entry): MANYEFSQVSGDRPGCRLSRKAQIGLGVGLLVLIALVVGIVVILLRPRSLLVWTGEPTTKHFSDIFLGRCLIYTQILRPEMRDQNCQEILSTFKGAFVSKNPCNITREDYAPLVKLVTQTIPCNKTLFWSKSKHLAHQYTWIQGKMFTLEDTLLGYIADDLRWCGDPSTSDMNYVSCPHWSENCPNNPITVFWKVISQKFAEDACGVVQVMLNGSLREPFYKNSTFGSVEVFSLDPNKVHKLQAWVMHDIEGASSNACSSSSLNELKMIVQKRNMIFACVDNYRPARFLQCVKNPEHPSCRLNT

## COCCO[C@H]1CC[C@H](NC(=O)c2cc(-c3cncs3)cc3[nH]ccc23)CC1
[1]
  AUC: 6980 ng·h/mL

## COCCO[C@H]1CC[C@H](NC(=O)c2cc(-c3cncs3)cn3ccnc23)CC1
[2]
  IC50: > 100000 nM

## COCCO[C@H]1CC[C@H](N(C)C(=O)c2cc(-c3cncs3)cc3[nH]ccc23)CC1
[2]
  IC50: > 100000 nM

## COCCO[C@H]1CC[C@H](NC(=O)c2cc(-n3ccnc3C)cc3cc[nH]c23)CC1
[2]
  IC50: > 100000 nM

## COCCO[C@H]1CC[C@H](NC(=O)c2cc(-c3cncs3)nc3[nH]ccc23)CC1
[3]
  fraction unbound: 0.209
[1]
  AUC: 10400 ng·h/mL
[4]
  AUC: 1670 ng·h/mL
[5]
  solubility thermodynamic: 10 µg/mL (≈ 25 µM)
[6]
  Vd: 0.9 L/kg
[7]
  AUC: 60400 ng·h/mL
Mus musculus [8]
  inhibition: Active
[9]
  Cmax: 4230 ng/mL
[10]
  half-life: 2.7 h
Mus musculus [11]
  inhibition: Active
Mus musculus [12]
  inhibition: Active
Mus musculus [13]
  inhibition: Active
[14]
  half-life: 3.1 h
[15]
  AUC: 4810 ng·h/mL
[16]
  AUC: 1740 ng·h/mL
[17]
  Papp B→A: 29.6 ×10⁻⁶ cm/s
CYP2C19
  inhibition at 10 µM: < 15%
Mus musculus [18]
  inhibition: Active
[19]
  Cmax: 710 ng/mL
CYP1A2
  inhibition at 10 µM: < 15%
[20]
  half-life: 3 h
[21]
  solubility kinetic: 25 µM (≈ 10 µg/mL)
[22]
  Vdss: 1.1 L/kg
[23]
  EC50: 181 nM
[24]
  Papp A→B: 17.5 ×10⁻⁶ cm/s
[25]
  EC50: 40 nM
hERG
  inhibition at 10 µM: < 10%
[26]
  fraction unbound: 0.206
Mus musculus [27]
  inhibition: Active
[28]
  Vdss: 9 L/kg
[29]
  t1/2: 3 h
[30]
  t1/2: 1 h
Mus musculus [31]
  inhibition: Active
CYP2C9
  inhibition at 10 µM: < 15%
[32]
  fraction unbound: 0.047
[33]
  Activity: Dde
[34]
  IC50: 70 nM
[35]
  AUC: 1295 ng·h/mL
[36]
  Cmax: 9.91 ng/mL
[37]
  Activity: Dde
[38]
  bioavailability: 100%
Mus musculus [39]
  inhibition: Active
CYP2C8
  inhibition at 10 µM: < 15%
[40]
  AUC: 10400 ng·h/mL
CYP2D6
  inhibition at 10 µM: < 15%
[41]
  half-life: 1.2 h
[42]
  IC50: 3 nM

## COCCO[C@H]1CC[C@H](CNC(=O)c2cc(-c3cncs3)cc3[nH]ccc23)CC1
[2]
  IC50: 6000 nM

## COCCO[C@H]1CC[C@H](NC(=O)c2cc(-c3cccnn3)cc3cc[nH]c23)CC1
[2]
  IC50: > 100000 nM

## COCCO[C@H]1CC[C@H](NC(=O)c2cc(-c3cnn(C)c3)cc3cc[nH]c23)CC1
[2]
  IC50: > 100000 nM
